# Experimental data published in PMC11395145, “The Archetypal Gamma-Core Motif of Antimicrobial Cys-Rich Peptides Inhibits H^+-ATPases in Target Pathogens” (International Journal of Molecular Sciences, 2024).
# Where a SMILES comes first, the peptide text is derived from it. Bridges are numbered along the chain shown (N, C = ends).
# Key:
# [1] = system: Candida albicans ATCC 10231; experiment: Microbicidal (spread-plate cell viability) assay, candidacidal activity; assay type: cell-based; details: for microbicidal (candidacidal) activity, in words: 90 min, 37 °C, Tris buffer pH 7.4, 10^6 cells/mL, CFU plating
# Method: (§1) First, we tested the antimicrobial activity of Kal-1 and a shorter Kal-1-derived peptide (Kdp15), both containing the complete γ-core signature of human lactoferrin, against C. albicans and P. aeruginosa. Microbicidal (cidal) activity was determined after 90 min of incubation (37 °C; pH 7.4) with a range of concentrations of each hLf-derived peptide.
# (§2) Figure 1 Cell viability and membrane permeabilization assays. C. albicans or P. aeruginosa (10^6 cells/mL) were incubated (90 min, 37 °C) with each peptide/protein at the indicated concentrations. Aliquots were plated on SDA or […], and colonies were counted after 24–48 h (C. albicans) or 24 h (P. aeruginosa). At each point, samples were stained with propidium iodide (PI) and intracellular PI incorporation, indicative of membrane permeabilization, was quantified by flow cytometry. The relative cell viability (blue lines) and cellular permeabilization (red lines) were calculated as the percentage of untreated cells. Human lactoferrin (hLf) and the peptide Lfpep were used as negative and positive controls of cellular permeabilization, respectively.
# (§3) Microbial susceptibility to the peptides was determined in a spread-plate assay as described previously. Briefly, two-fold serially diluted peptides were incubated (37 °C) with approximately 10^6 cells/mL in Tris buffer (10 mM Tris-HCl, pH 7.4). After 90 min of incubation with the peptides, aliquots were removed and plated in duplicate on an appropriate agar plate for each species (SDA for C. albicans, TSA for P. aeruginosa). The plates were incubated for 24–48 h at 30 °C (C. albicans) or 24 h at 37 °C (P. aeruginosa) for enumeration. The cell viability values, expressed as colony forming units (CFUs), were determined relative to incubation without added peptides and represent the mean ± standard deviation (±SD) of at least three independent determinations. For inhibition assays, the cell suspensions were preincubated (15 min at 37 °C) with the corresponding inhibitors before the addition of peptides. Water-insoluble inhibitors were prepared in DMSO, such that the final assay volume was ≤1%. Other specific experimental inhibition conditions are described where appropriate. The IC50 value is expressed as the concentration that caused 50% reduction in viable counts.
# [2] = system: Pseudomonas aeruginosa 10145 (PAO1); experiment: Microbicidal (spread-plate cell viability) assay, pseudomonacidal activity; assay type: cell-based; details: for microbicidal (pseudomonacidal) activity, in words: 90 min, 37 °C, Tris buffer pH 7.4, 10^6 cells/mL, CFU plating
# Method: as §1, §2, §3
# [3] = system: C. albicans cells; experiment: Oxygen consumption measurement (Clark-type electrode); assay type: cell-based, Candida albicans; details: 5 × 10^6 cells/mL, peptides at IC50, piericidin A 32 μM, at least 30 min, 25 °C
# Method: (§4) Figure 3 Effect of cellular respiration on the microbicidal activity of hLf γ-core-containing peptides. (A,C) Oxygen consumption was measured in C. albicans and P. aeruginosa cellular suspensions in the absence (control) or the presence of kaliocin-1 (Kal-1), Kdp15, or human lactoferrin (hLf), and piericidin A (positive control). (B,D) Effect of cellular respiration on the microbicidal activity of hLf γ-core-containing peptides. Cells (10^6 cells/mL) were pre-incubated (15 min, 37 °C) with 32 μM piericidin A and incubated for 90 min at 37 °C with the peptides hLf or BM2. The cell viability was determined by means of the plate counting method. The results are the mean ± SD from duplicates of at least three independent experiments. * p < 0.05, ** p < 0.01, and *** p < 0.001 were used.
# (§5) C. albicans or P. aeruginosa cells were grown to the mid-logarithmic phase, washed twice in Tris buffer, and resuspended in the same buffer, as described in [9, 10]. Briefly, cells (5 × 10^6 cells/mL) were pre-incubated for 15 min at 37 °C with the peptides (IC50). […] Oxygen consumption was measured using a Clark-type oxygen electrode (Dual digital-model 20, Rank Brothers Ltd., Cambridge, UK) in a closed jacketed chamber maintained at 25 °C. […] The viability of the cells was determined at 30 min by removing aliquots from the oxygen chambers and plating the subsequent dilutions on SDA or TSA plates.
# [4] = system: P. aeruginosa cells; experiment: as above; assay type: cell-based, Pseudomonas aeruginosa; details: 5 × 10^6 cells/mL, peptides at IC50, piericidin A 32 μM, at least 30 min, 25 °C
# Method: as §4, §5
# [5] = system: C. albicans cells; experiment: Measurement of intracellular ATP (BacTiter-Glo); assay type: cell-based, Candida albicans; details: C. albicans 10^6 cells/mL, candidacidal concentration, 90 min, 37 °C; BM2 0.25 μM
# Method: Total ATP was measured by using the BacTiter-Glo^TM Microbial Cell Viability Assay (Promega Co., Madison, WI, USA) according to the manufacturer’s instructions. […] Aliquots (100 μL) were incubated (90 min at 37 °C) with kaliocin-1, Kdp15, or human lactoferrin and the BM2 peptide (positive control). One hundred microliters of incubation mix was transferred into a 96-well opaque white plate, mixed with an equal volume of the BacTiter-Glo reagent, and incubated for 15 min in the dark. The reagent used a thermostable luciferase to produce luminescence in an ATP-dependent manner. The emitted luminescence was detected by using a Varioskan Flash multimode reader (Thermo Scientific, Waltham, MA, USA) with a 10 s of shaking and 1 s integration time. A calibration curve was prepared for each experiment, with ATP standards ranging from 1 to 1000 nM. For assays performed in the presence of the BM2 peptide, samples were preincubated with 0.25 μM BM2 for 30 min at 37 °C. All the tests were performed in triplicate at least four times.
# [6] = system: Candida albicans ATCC 10231; details: used in control assays; cited from earlier work
# Method: as §1, with “peptide. The hLf γ-core-containing peptides were microbicidal in a concentration-dependent way (Figure 1). […] The IC50 es ...” for “peptide.”
# [7] = concentration range 0 to 100 μM
compound,measurement,setting,value
"CC[C@H](C)[C@@H]1NC(=O)[C@H](C(C)C)NC(=O)[C@H](CC(C)C)NC(=O)CNC(=O)[C@H](C(C)C)NC(=O)[C@@H]2CCCN2C(=O)[C@H]([C@@H](C)CC)NC(=O)[C@@H]2CSSC[C@@H]3NC(=O)[C@H](C(C)C)NC(=O)CNC(=O)[C@H](CC(N)=O)NC(=O)[C@@H](NC(=O)[C@H](CO)NC(=O)[C@H](C)NC(C)=O)CSSC[C@H](NC(=O)[C@H](C)NC(=O)[C@H](CO)NC(=O)[C@H]([C@@H](C)O)NC(=O)CNC(=O)[C@H](CSSC[C@@H](C(=O)N[C@@H](CCCNC(=N)N)C(=O)N[C@@H](CC(N)=O)C(=O)N4CCC[C@H]4C(=O)N[C@@H](CO)C(=O)NCC(N)=O)NC(=O)[C@H](Cc4ccc(O)cc4)NC(=O)CNC1=O)NC(=O)[C@@H]1CCCN1C(=O)[C@@H]1CCCN1C(=O)[C@H](CCSC)NC(=O)[C@H](CCC(=O)O)NC(=O)[C@H](Cc1ccccc1)NC(=O)[C@@H]1CCCN1C(=O)[C@H](CO)NC3=O)C(=O)N[C@@H](CCCNC(=N)N)C(=O)N2 [PA1b] (Ac-ASCNGVCSPFEMPPCGTSACRCIPVGLVIGYCRNPSG-NH2; disulfide 3-20, 7-22, 15-32)","microbicidal (candidacidal) activity, in words",[1],showed candidacidal activity
same,"microbicidal (pseudomonacidal) activity, in words",[2],not pseudomonacidal
"C/C=C(\C)[C@H](O)[C@H](C)/C=C(C)/C=C/C/C(C)=C/Cc1nc(OC)c(OC)c(O)c1C [piericidin A, reference compound]",oxygen consumption of C. albicans in presence of the substance,[3],inhibited
same,oxygen consumption of P. aeruginosa in presence of the substance,[4],inhibited
CAGTGENKC [Kdp9],"antimicrobial activity, in words",[1]; [7],not detected
same,"antimicrobial activity, in words",[2]; [7],not detected
"D-NH2-RRRFWWFRRR-CONH2 [BM2, reference compound]",increment in intracellular ATP (iATP) level compared to untreated control,[5],~ 9 fold
same,decrease of candidacidal activity by oligomycin A,"[1]; 0.25 μM BM2, cells pre-incubated 15 min, 37 °C with 16 μg/mL oligomycin A",~ 62%
same,effect of high external K^+ on candidacidal activity,[1]; Tris buffer with 50 mM KCl vs without,decreased
same,effect of respiration inhibition (piericidin A) on candidacidal activity,"[1]; cells pre-incubated 15 min, 37 °C with 32 μM piericidin A, then 90 min with peptide",substantially inhibited
same,effect of Tok1p K^+ channel block (TEA^+) on candidacidal activity,[1]; cells pre-incubated 15 min with 10 mM TEA^+,significantly (p < 0.001) inhibited
same,previously reported microbicidal concentration (organism not given),[6],0.25 µM
"GSKKPVPIIYCNRRTGKCQRM [Thanatin, complete 21-aa antimicrobial peptide from Podisus maculiventris (insect)]","microbicidal (candidacidal) activity, in words",[1],most potent
same,"microbicidal (pseudomonacidal) activity, in words",[2],most potent
"HCKNKEHLRSGRCRDDFRCWCT [PvD1, 22-aa γ-core fragment of defensin PvD1 from Phaseolus vulgaris (bean)]","microbicidal (pseudomonacidal) activity, in words",[2],showed pseudomonacidal activity
